Source: PubChem BioAssay AID2060897 (Molecular Pharmacology Branch, DTP, NCI, 2025)

Test system: 966289-007-R4-J1-PDC complex spheroid viability
Assay: Anticancer human tumor 966289-007-R4-J1-PDC patient-derived pancreatic adenocarcinoma cell line growth inhibition [RAS]
Conditions: for viability, T/C: stronger effect = lower value
Outline: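 Multi-cell-type spheroids: tumor cells plus HUVEC endothelial cells and mesenchymal stem cells. RAS-pathway inhibitors were combined with targeted agents, each dosed in half-log steps down from clinical Cmax, or from 10 microM when Cmax was unknown.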

[1] = curve of first compound, second compound 0.00316 µM
[2] = curve of first compound, second compound 0.01 µM
[3] = curve of first compound, second compound 0.0316 µM
[4] = curve of first compound, second compound 0.1 µM
[5] = curve of first compound, second compound 0.316 µM
[6] = curve of first compound, second compound 1 µM
[7] = second compound 0.00316 µM, first compound 0.0316 µM
[8] = second compound 0.00316 µM, first compound 0.1 µM
[9] = second compound 0.00316 µM, first compound 0.316 µM
[10] = second compound 0.00316 µM, first compound 1 µM
[11] = second compound 0.00316 µM, first compound 3.16 µM
[12] = second compound 0.00316 µM, first compound 10 µM
[13] = second compound 0.01 µM, first compound 0.0316 µM
[14] = second compound 0.01 µM, first compound 0.1 µM
[15] = second compound 0.01 µM, first compound 0.316 µM
[16] = second compound 0.01 µM, first compound 1 µM
[17] = second compound 0.01 µM, first compound 3.16 µM
[18] = second compound 0.01 µM, first compound 10 µM
[19] = second compound 0.0316 µM, first compound 0.0316 µM
[20] = second compound 0.0316 µM, first compound 0.1 µM
[21] = second compound 0.0316 µM, first compound 0.316 µM
[22] = second compound 0.0316 µM, first compound 1 µM
[23] = second compound 0.0316 µM, first compound 3.16 µM
[24] = second compound 0.0316 µM, first compound 10 µM
[25] = second compound 0.1 µM, first compound 0.0316 µM
[26] = second compound 0.1 µM, first compound 0.1 µM
[27] = second compound 0.1 µM, first compound 0.316 µM
[28] = second compound 0.1 µM, first compound 1 µM
[29] = second compound 0.1 µM, first compound 3.16 µM
[30] = second compound 0.1 µM, first compound 10 µM
[31] = second compound 0.316 µM, first compound 0.0316 µM
[32] = second compound 0.316 µM, first compound 0.1 µM
[33] = second compound 0.316 µM, first compound 0.316 µM
[34] = second compound 0.316 µM, first compound 1 µM
[35] = second compound 0.316 µM, first compound 3.16 µM
[36] = second compound 0.316 µM, first compound 10 µM
[37] = second compound 1 µM, first compound 0.0316 µM
[38] = second compound 1 µM, first compound 0.1 µM
[39] = second compound 1 µM, first compound 0.316 µM
[40] = second compound 1 µM, first compound 1 µM
[41] = second compound 1 µM, first compound 3.16 µM
[42] = second compound 1 µM, first compound 10 µM
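Also: spheroids exposed to agents for one week before readout.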
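For viability, T/C in this document: percent viability relative to DMSO vehicle control wells as 100%.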

Structure (SMILES): CC(=O)OC12COC1CC(O)C1(C)C(=O)C(O)C3=C(C)C(OC(=O)C(O)C(NC(=O)OC(C)(C)C)c4ccccc4)CC(O)(C(OC(=O)c4ccccc4)C21)C3(C)C (configuration not stated) + C=CC(=O)N1CCN(c2nc(OCC3CCCN3C)nc3c(F)c(-c4nc(N)cc(C)c4C(F)(F)F)c(Cl)cc23)C(C)C1
- IC50 [1]: < 31.6 nM
- IC50 [2]: < 31.6 nM
- IC50 [3]: < 31.6 nM
- IC50 [4]: < 31.6 nM
- IC50 [5]: < 31.6 nM
- IC50 [6]: < 31.6 nM
- viability, T/C [7]: 7.49%
- viability, T/C [8]: 11.8%
- viability, T/C [9]: 14.4%
- viability, T/C [10]: 20.6%
- viability, T/C [11]: 30.4%
- viability, T/C [12]: 48.1%
- viability, T/C [13]: 7.11%
- viability, T/C [14]: 11.6%
- viability, T/C [15]: 14.8%
- viability, T/C [16]: 19.2%
- viability, T/C [17]: 31.9%
- viability, T/C [18]: 60.7%
- viability, T/C [19]: 7.67%
- viability, T/C [20]: 13.9%
- viability, T/C [21]: 10.9%
- viability, T/C [22]: 18.2%
- viability, T/C [23]: 33.2%
- viability, T/C [24]: 56.3%
- viability, T/C [25]: 6.48%
- viability, T/C [26]: 12.7%
- viability, T/C [27]: 15.2%
- viability, T/C [28]: 21.9%
- viability, T/C [29]: 30.4%
- viability, T/C [30]: 57.9%
- viability, T/C [31]: 7.29%
- viability, T/C [32]: 12%
- viability, T/C [33]: 12.1%
- viability, T/C [34]: 15.3%
- viability, T/C [35]: 30.3%
- viability, T/C [36]: 56.1%
- viability, T/C [37]: 8.02%
- viability, T/C [38]: 12.3%
- viability, T/C [39]: 12.5%
- viability, T/C [40]: 19%
- viability, T/C [41]: 35.8%
- viability, T/C [42]: 49.2%

Structure (SMILES): CC(=O)OC12COC1CC(O)C1(C)C(=O)C(O)C3=C(C)C(OC(=O)C(O)C(NC(=O)OC(C)(C)C)c4ccccc4)CC(O)(C(OC(=O)c4ccccc4)C21)C3(C)C (configuration not stated) + CCn1c(-c2cccnc2C(C)OC)c2c3cc(ccc31)N1CCOC(CC(NC(=O)C(C(C)C)N(C)C(=O)C3(F)CCN(C(=O)C#CC(C)(C)N(C)C)CC3)C(=O)N3CCCC(N3)C(=O)OCC(C)(C)C2)C1
- IC50 (curve of first compound, second compound 0.000949 µM): < 31.6 nM
- IC50 (curve of first compound, second compound 0.003 µM): < 31.6 nM
- IC50 (curve of first compound, second compound 0.00949 µM): < 31.6 nM
- IC50 (curve of first compound, second compound 0.03 µM): < 31.6 nM
- IC50 (curve of first compound, second compound 0.0949 µM): < 31.6 nM
- IC50 (curve of first compound, second compound 0.3 µM): < 31.6 nM
- viability, T/C (second compound 0.000949 µM, first compound 0.0316 µM): 5.96%
- viability, T/C (second compound 0.000949 µM, first compound 0.1 µM): 11.7%
- viability, T/C (second compound 0.000949 µM, first compound 0.316 µM): 9.08%
- viability, T/C (second compound 0.000949 µM, first compound 1 µM): 14.2%
- viability, T/C (second compound 0.000949 µM, first compound 3.16 µM): 38%
- viability, T/C (second compound 0.000949 µM, first compound 10 µM): 61.4%
- viability, T/C (second compound 0.003 µM, first compound 0.0316 µM): 5.16%
- viability, T/C (second compound 0.003 µM, first compound 0.1 µM): 12.8%
- viability, T/C (second compound 0.003 µM, first compound 0.316 µM): 11%
- viability, T/C (second compound 0.003 µM, first compound 1 µM): 16.3%
- viability, T/C (second compound 0.003 µM, first compound 3.16 µM): 32.3%
- viability, T/C (second compound 0.003 µM, first compound 10 µM): 52%
- viability, T/C (second compound 0.00949 µM, first compound 0.0316 µM): 4.31%
- viability, T/C (second compound 0.00949 µM, first compound 0.1 µM): 11.3%
- viability, T/C (second compound 0.00949 µM, first compound 0.316 µM): 10.9%
- viability, T/C (second compound 0.00949 µM, first compound 1 µM): 16.3%
- viability, T/C (second compound 0.00949 µM, first compound 3.16 µM): 25.2%
- viability, T/C (second compound 0.00949 µM, first compound 10 µM): 59.7%
- viability, T/C (second compound 0.03 µM, first compound 0.0316 µM): 2.88%
- viability, T/C (second compound 0.03 µM, first compound 0.1 µM): 3.54%
- viability, T/C (second compound 0.03 µM, first compound 0.316 µM): 8.87%
- viability, T/C (second compound 0.03 µM, first compound 1 µM): 10.5%
- viability, T/C (second compound 0.03 µM, first compound 3.16 µM): 20.4%
- viability, T/C (second compound 0.03 µM, first compound 10 µM): 49.5%
- viability, T/C (second compound 0.0949 µM, first compound 0.0316 µM): 2.26%
- viability, T/C (second compound 0.0949 µM, first compound 0.1 µM): 4.26%
- viability, T/C (second compound 0.0949 µM, first compound 0.316 µM): 3.62%
- viability, T/C (second compound 0.0949 µM, first compound 1 µM): 4.99%
- viability, T/C (second compound 0.0949 µM, first compound 3.16 µM): 16.5%
- viability, T/C (second compound 0.0949 µM, first compound 10 µM): 26.8%
- viability, T/C (second compound 0.3 µM, first compound 0.0316 µM): 1.97%
- viability, T/C (second compound 0.3 µM, first compound 0.1 µM): 3.21%
- viability, T/C (second compound 0.3 µM, first compound 0.316 µM): 4.05%
- viability, T/C (second compound 0.3 µM, first compound 1 µM): 4.51%
- viability, T/C (second compound 0.3 µM, first compound 3.16 µM): 7.84%
- viability, T/C (second compound 0.3 µM, first compound 10 µM): 9.46%

Structure (SMILES): NC1c2ccccc2OC12CCN(c1cnc3c(N4CCCc5ncccc54)n[nH]c3n1)CC2 (configuration not stated) + C=CC(=O)N1CCN(c2nc(OCC3CCCN3C)nc3c(F)c(-c4nc(N)cc(C)c4C(F)(F)F)c(Cl)cc23)C(C)C1
- IC50 [1]: > 10000 nM
- IC50 [2]: > 10000 nM
- IC50 [3]: > 10000 nM
- IC50 [4]: > 10000 nM
- IC50 [5]: > 10000 nM
- IC50 [6]: > 10000 nM
- viability, T/C [7]: 117%
- viability, T/C [8]: 90.1%
- viability, T/C [9]: 126%
- viability, T/C [10]: 102%
- viability, T/C [11]: 113%
- viability, T/C [12]: 103%
- viability, T/C [13]: 113%
- viability, T/C [14]: 104%
- viability, T/C [15]: 104%
- viability, T/C [16]: 122%
- viability, T/C [17]: 107%
- viability, T/C [18]: 118%
- viability, T/C [19]: 113%
- viability, T/C [20]: 103%
- viability, T/C [21]: 133%
- viability, T/C [22]: 113%
- viability, T/C [23]: 126%
- viability, T/C [24]: 119%
- viability, T/C [25]: 101%
- viability, T/C [26]: 103%
- viability, T/C [27]: 94.2%
- viability, T/C [28]: 105%
- viability, T/C [29]: 119%
- viability, T/C [30]: 107%
- viability, T/C [31]: 109%
- viability, T/C [32]: 91.4%
- viability, T/C [33]: 107%
- viability, T/C [34]: 120%
- viability, T/C [35]: 102%
- viability, T/C [36]: 106%
- viability, T/C [37]: 105%
- viability, T/C [38]: 114%
- viability, T/C [39]: 123%
- viability, T/C [40]: 113%
- viability, T/C [41]: 116%
- viability, T/C [42]: 124%

Structure (SMILES): CCn1c(-c2cc(N3CCN(C)CC3)cnc2C(C)OC)c2c3cc(ccc31)-c1csc(n1)CC(NC(=O)C1CC1C)C(=O)N1CCCC(N1)C(=O)OCC(C)(C)C2 (configuration not stated)
- viability, T/C (compound 0.000949 µM): 97.8% [middle of 8 runs]
- IC50 (compound alone, run of 05/20/2024): > 300 nM

Structure (SMILES): C=CC(=O)Nc1cc(Nc2nccc(-c3cn(C)c4ccccc34)n2)c(OC)cc1N(C)CCN(C)C
- viability, T/C (compound 0.0316 µM): 100% [middle of 4 runs]
- IC50 (curve of compound): > 1000 nM

Structure (SMILES): CC(Nc1ccc2c(c1)OCCn1cc(N3C(=O)OCC3C(F)F)nc1-2)C(N)=O (configuration not stated) + C=CC(=O)N1CCN(c2nc(OCC3CCCN3C)nc3c(F)c(-c4nc(N)cc(C)c4C(F)(F)F)c(Cl)cc23)C(C)C1
- IC50 [1]: > 10000 nM
- IC50 [2]: > 10000 nM
- IC50 [3]: > 10000 nM
- IC50 [4]: > 10000 nM
- IC50 [5]: > 10000 nM
- IC50 [6]: > 10000 nM
- viability, T/C [7]: 96.2%
- viability, T/C [8]: 103%
- viability, T/C [9]: 96.3%
- viability, T/C [10]: 96.4%
- viability, T/C [11]: 101%
- viability, T/C [12]: 86.1%
- viability, T/C [13]: 89.8%
- viability, T/C [14]: 112%
- viability, T/C [15]: 115%
- viability, T/C [16]: 102%
- viability, T/C [17]: 97.4%
- viability, T/C [18]: 86.9%
- viability, T/C [19]: 99.8%
- viability, T/C [20]: 110%
- viability, T/C [21]: 114%
- viability, T/C [22]: 111%
- viability, T/C [23]: 93.2%
- viability, T/C [24]: 84.1%
- viability, T/C [25]: 95.8%
- viability, T/C [26]: 111%
- viability, T/C [27]: 115%
- viability, T/C [28]: 115%
- viability, T/C [29]: 88.3%
- viability, T/C [30]: 93.3%
- viability, T/C [31]: 96.6%
- viability, T/C [32]: 101%
- viability, T/C [33]: 117%
- viability, T/C [34]: 117%
- viability, T/C [35]: 103%
- viability, T/C [36]: 98.7%
- viability, T/C [37]: 99.8%
- viability, T/C [38]: 110%
- viability, T/C [39]: 112%
- viability, T/C [40]: 87.1%
- viability, T/C [41]: 96.5%
- viability, T/C [42]: 83.2%
